Values belong to the molecule of their own block, whether it stands above or below them.
Assays:
[1] = Cytotoxicity against human HepG2(2.2.15) cells; format: cell-based
Hepatitis B virus [2] = assay: Antiviral activity against HBV assessed as inhibition of viral surface antigen secretion; format: functional, organism-based
[3] = Selectivity index, ratio of CC50 for human HepG2(2.2.15) cells to IC50 for HBV surface antigen secretion; format: functional
Hepatitis B virus [4] = assay: Antiviral activity against HBV assessed as inhibition of viral early antigen secretion; format: functional, organism-based
[5] = Selectivity index, ratio of CC50 for human HepG2(2.2.15) cells to IC50 for HBV early antigen secretion; format: functional
[6] = Initial plasma concentration n Sprague-Dawley rat at 2 mg/kg, iv; format: ADME, organism-based; set-up: dose 2 mg/kg, route intravenous
[7] = Cmax in Sprague-Dawley rat at 10 mg/kg, ig; format: ADME, organism-based; set-up: dose 10 mg/kg, route intragastric; conditions: in vivo, po
[8] = Tmax in Sprague-Dawley rat at 10 mg/kg, ig; format: ADME, organism-based; set-up: dose 10 mg/kg, route intragastric; conditions: in vivo, po
[9] = Half life in Sprague-Dawley rat at 2 mg/kg, iv; format: ADME, organism-based; set-up: dose 2 mg/kg, route intravenous; conditions: in vivo
Rattus norvegicus [10] = assay: AUC in Sprague-Dawley rat at 10 mg/kg, ig; format: ADME, organism-based, Plasma; set-up: dose 10 mg/kg, route intragastric; conditions: in vivo, po
Rattus norvegicus [11] = assay: AUC in Sprague-Dawley rat at 2 mg/kg, iv; format: ADME, organism-based, Plasma; set-up: dose 2 mg/kg, route intravenous; conditions: in vivo
Rattus norvegicus [12] = assay: Clearance in Sprague-Dawley rat at 2 mg/kg, iv; format: ADME, organism-based; set-up: dose 2 mg/kg, route intravenous; conditions: in vivo
[13] = Volume of distribution at steady state in Sprague-Dawley rat at 2 mg/kg, iv; format: ADME, organism-based; set-up: dose 2 mg/kg, route intravenous; conditions: in vivo, read-out: Vdss
Rattus norvegicus [14] = assay: Oral bioavailability in Sprague-Dawley rat at 10 mg/kg; format: ADME, organism-based; conditions: in vivo
[15] = Drug level in Sprague-Dawley rat blood at 2 mg/kg, iv after 0.5 hrs; format: ADME, organism-based; set-up: dose 2 mg/kg, route intravenous; conditions: read-out: Drug uptake
[16] = Drug level in Sprague-Dawley rat blood at 2 mg/kg, iv after 1 hr; format: ADME, organism-based; set-up: dose 2 mg/kg, route intravenous; conditions: read-out: Drug uptake
[17] = Drug level in Sprague-Dawley rat blood at 2 mg/kg, iv after 2 hrs; format: ADME, organism-based; set-up: dose 2 mg/kg, route intravenous; conditions: read-out: Drug uptake
[18] = Drug level in Sprague-Dawley rat blood at 2 mg/kg, iv after 4 hrs; format: ADME, organism-based; set-up: dose 2 mg/kg, route intravenous; conditions: read-out: Drug uptake
[19] = Drug level in Sprague-Dawley rat blood at 2 mg/kg, iv after 8 hrs; format: ADME, organism-based; set-up: dose 2 mg/kg, route intravenous; conditions: read-out: Drug uptake
[20] = Drug level in Sprague-Dawley rat blood at 2 mg/kg, iv after 24 hrs; format: ADME, organism-based; set-up: dose 2 mg/kg, route intravenous; conditions: read-out: Drug uptake
[21] = Drug level in Sprague-Dawley rat blood at 10 mg/kg, ig after 0.083 hrs; format: ADME, organism-based; set-up: dose 10 mg/kg, route intragastric; conditions: po, read-out: Drug uptake
[22] = Drug level in Sprague-Dawley rat blood at 10 mg/kg, ig after 0.25 hrs; format: ADME, organism-based; set-up: dose 10 mg/kg, route intragastric; conditions: po, read-out: Drug uptake
[23] = Drug level in Sprague-Dawley rat blood at 10 mg/kg, ig after 0.5 hrs; format: ADME, organism-based; set-up: dose 10 mg/kg, route intragastric; conditions: po, read-out: Drug uptake
[24] = Drug level in Sprague-Dawley rat blood at 10 mg/kg, ig after 1 hr; format: ADME, organism-based; set-up: dose 10 mg/kg, route intragastric; conditions: po, read-out: Drug uptake
[25] = Drug level in Sprague-Dawley rat blood at 10 mg/kg, ig after 2 hrs; format: ADME, organism-based; set-up: dose 10 mg/kg, route intragastric; conditions: po, read-out: Drug uptake
[26] = Drug level in Sprague-Dawley rat blood at 10 mg/kg, ig after 4 hrs; format: ADME, organism-based; set-up: dose 10 mg/kg, route intragastric; conditions: po, read-out: Drug uptake
[27] = Drug level in Sprague-Dawley rat blood at 10 mg/kg, ig after 8 hrs; format: ADME, organism-based; set-up: dose 10 mg/kg, route intragastric; conditions: po, read-out: Drug uptake
[28] = Drug level in Sprague-Dawley rat blood at 10 mg/kg, ig after 24 hrs; format: ADME, organism-based; set-up: dose 10 mg/kg, route intragastric; conditions: po, read-out: Drug uptake
[29] = Drug level in Sprague-Dawley rat blood at 2 mg/kg, iv after 0.25 hrs; format: ADME, organism-based; set-up: dose 2 mg/kg, route intravenous; conditions: read-out: Drug uptake
[30] = Drug level in Sprague-Dawley rat blood at 2 mg/kg, iv after 0.083 hrs; format: ADME, organism-based; set-up: dose 2 mg/kg, route intravenous; conditions: read-out: Drug uptake

IC50 (Hepatitis B virus [2]): 0.0048 mM
IC50 (Hepatitis B virus [4]): 0.011 mM
C0 [6]: 567 ng/mL
Cmax [7]: 383 ng/mL
Tmax [8]: 1 h
half-life [9]: 1.63 h
AUC (Rattus norvegicus [10]): 1040 ng·h/mL
AUC (Rattus norvegicus [11]): 510 ng·h/mL
CL (Rattus norvegicus [12]): 64.5 mL/min/kg
Vd [13]: 5.73 L/kg
F (Rattus norvegicus [14]): 40.9%
concentration at 0.5 h [15]: 246 ng/mL
concentration at 1 h [16]: 156 ng/mL
concentration at 2 h [17]: 71.8 ng/mL
concentration at 4 h [18]: 14.5 ng/mL
concentration at 8 h [19]: 5.02 ng/mL
concentration at 24 h [20]: 2.19 ng/mL
concentration at 0.083 h [21]: 8.6 ng/mL
concentration at 0.25 h [22]: 70 ng/mL
concentration at 0.5 h [23]: 170 ng/mL
concentration at 1 h [24]: 383 ng/mL
concentration at 2 h [25]: 290 ng/mL
concentration at 4 h [26]: 55.9 ng/mL
concentration at 8 h [27]: 6.28 ng/mL
concentration at 24 h [28]: 2.03 ng/mL
concentration at 0.25 h [29]: 363 ng/mL
concentration at 0.083 h [30]: 567 ng/mL
Compound: CC(=O)O[C@@H](C[C@@H](C)C1=C2C[C@H](OC(C)=O)[C@H]3[C@@]4(C)CCC(=O)C(C)(C)[C@@H]4CC[C@]3(C)[C@@]2(C)CC1)[C@@H](OC(C)=O)C(C)(C)OC(C)=O
CC50 [1]: > 1.6 mM
Ratio CC50/IC50 [3]: >333
Ratio CC50/IC50 [5]: >145

IC50 (Hepatitis B virus [2]): 13 mM
IC50 (Hepatitis B virus [4]): 22 mM
Compound: Nc1ccn([C@@H]2CS[C@H](CO)O2)c(=O)n1 [LAMIVUDINE]
CC50 [1]: 35 mM
Ratio CC50/IC50 [3]: 2.7
Ratio CC50/IC50 [5]: 1.6
